Test results as given in ChEMBL document CHEMBL1201862, “PubChem BioAssay data set” (2004).
Activity calls are given as the source filed them. Rule as the data show it, for most assays here: actives have a measured EC50 and inactives only a lower limit.

Assays:
[1] = test system: H9c2; test: cells; assay type: functional, cell-based; settings: Rattus norvegicus, H9c2, Myocardium;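 also: confirmatory concentration-response retest of ultra-high-throughput screening hits for modulation of myocardial damage; cell death induced by hydrogen peroxide oxidative stress; compound pretreatment for 60 min then peroxide exposure for 2 h; potency is for protecting the cells against peroxide damage rather than for killing them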
[2] = molecular target: Large T antigen (Simian virus 40, UniProt P03070); assay type: functional, Betapolyomavirus macacae;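 also: Confirmatory-stage PubChem screen for compounds that inhibit SV40 T antigen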
[3] = molecular target: T1, Calpain-2 catalytic subunit (Sus scrofa, UniProt P43367); test: m-calpain protease blockers, concentration series – biochemical, fluorogenic peptide substrate, dose response (AID 1420); assay type: functional
T1 sequence (P43367 whole entry): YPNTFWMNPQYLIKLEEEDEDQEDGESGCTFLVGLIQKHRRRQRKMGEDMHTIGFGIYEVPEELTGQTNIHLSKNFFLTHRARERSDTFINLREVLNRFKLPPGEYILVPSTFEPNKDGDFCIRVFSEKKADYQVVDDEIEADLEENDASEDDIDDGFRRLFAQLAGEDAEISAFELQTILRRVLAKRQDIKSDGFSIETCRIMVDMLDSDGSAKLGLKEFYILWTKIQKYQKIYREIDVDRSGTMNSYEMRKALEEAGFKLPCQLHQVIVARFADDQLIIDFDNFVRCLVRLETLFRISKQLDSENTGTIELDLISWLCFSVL

[4] = molecular target: T2, Ubiquitin-conjugating enzyme E2 N (Homo sapiens, UniProt P61088); assay type: functional;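 also: Dose-response confirmation in a TR-FRET assay detecting UBC13-driven polyubiquitin chain formation, inhibition measured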
T2 sequence (P61088 whole entry): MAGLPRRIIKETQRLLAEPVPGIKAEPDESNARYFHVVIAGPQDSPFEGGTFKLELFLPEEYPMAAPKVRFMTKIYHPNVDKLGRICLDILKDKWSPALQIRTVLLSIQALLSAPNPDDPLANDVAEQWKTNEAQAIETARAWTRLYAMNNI

[5] = Trypanosoma cruzi growth suppression in host cells – NIH3T3 host cells, beta-gal luminescence, confirmation (AID 2044); assay type: functional, cell-based;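 also: intracellular parasites grown in NIH/3T3 mouse fibroblasts as host cells; luminescent beta-galactosidase reporter signal from transgenic T. cruzi replicating inside host cells; inhibitors lower the luminescence signal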
[6] = NIH3T3 cell viability loss – ATP luminescence, mouse fibroblasts, counter-screen, dose response (AID 2010); assay type: functional, cell-based;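 also: cells exposed to compound for about 90 hours before reading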
[7] = cells; assay type: functional
[8] = molecular target: Luciferin 4-monooxygenase (Photinus pyralis, UniProt P08659); test: inhibition of purified Photinus pyralis luciferase – biochemical, luminescence, dose response (AID 1891)
[9] = Luminescence Cell-Based Dose Confirmation HTS to Identify Inhibitors of Platelet Dense Granule Release. [Related pubchem assays: 1663 (Primary HTS), 1678 (Summary of Project)]; assay type: functional
[10] = Luminescence Cell-Based Dose Response HTS to Identify Activators of Luciferase Translation or Activity in H4 […] Cells. [Related pubchem assays: 1829 (Project Summary), 1814 (Primary HTS)]; assay type: functional
[11] = test system: H4; test: Luminescence Cell-Based Dose Response HTS to Identify Activators of 5'UTR Stem-Loop Driven Prion Protein mRNA Translation in H4 Neuroglioblastoma Cells. [Related pubchem assays: 1829 (Project Summary), 1814 (Primary HTS)]; assay type: functional; settings: Homo sapiens
[12] = molecular target: T3, Corticotropin-releasing factor receptor 2/Corticotropin-releasing factor-binding protein (Homo sapiens, UniProt P24387+Q13324); test: activators of CRF receptor 2 with binding protein – uHTS hits, confirmation (AID 602473); assay type: functional; settings: read-out: EC50_Mean
T3 sequence (Q13324 whole entry): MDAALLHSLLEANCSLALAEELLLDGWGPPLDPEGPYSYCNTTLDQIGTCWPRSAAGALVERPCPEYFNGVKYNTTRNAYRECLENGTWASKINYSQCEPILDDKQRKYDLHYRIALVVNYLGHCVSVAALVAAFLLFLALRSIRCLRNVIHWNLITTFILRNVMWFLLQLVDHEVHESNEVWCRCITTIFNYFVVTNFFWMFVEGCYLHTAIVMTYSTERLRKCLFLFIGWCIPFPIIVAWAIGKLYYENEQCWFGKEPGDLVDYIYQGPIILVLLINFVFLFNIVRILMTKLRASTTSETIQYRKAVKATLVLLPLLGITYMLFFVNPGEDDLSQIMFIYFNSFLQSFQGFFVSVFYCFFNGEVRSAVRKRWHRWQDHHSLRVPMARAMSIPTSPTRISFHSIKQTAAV
T3 sequence (P24387 whole entry): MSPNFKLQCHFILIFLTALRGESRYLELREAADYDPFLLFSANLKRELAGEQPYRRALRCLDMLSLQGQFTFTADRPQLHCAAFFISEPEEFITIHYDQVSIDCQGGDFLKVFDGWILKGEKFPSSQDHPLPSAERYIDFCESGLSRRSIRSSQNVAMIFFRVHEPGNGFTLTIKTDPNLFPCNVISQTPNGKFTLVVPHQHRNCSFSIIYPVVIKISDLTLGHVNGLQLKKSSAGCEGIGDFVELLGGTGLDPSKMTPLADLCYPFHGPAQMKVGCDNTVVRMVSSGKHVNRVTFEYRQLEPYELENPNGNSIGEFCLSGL

[13] = molecular target: T4, Heat shock factor protein 1 (Mus musculus, UniProt P38532); test: decrease of HSF1-responsive luciferase luminescence – cell-based, NIH3T3, dose retest, confirmation (AID 2382); assay type: functional;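 also: NIH3T3 fibroblasts with HSF1-driven luciferase reporter stressed by proteasome inhibitor MG132; luminescence from HSF1-driven luciferase expression after 8 hours of MG132 stress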
T4 sequence (P38532 whole entry): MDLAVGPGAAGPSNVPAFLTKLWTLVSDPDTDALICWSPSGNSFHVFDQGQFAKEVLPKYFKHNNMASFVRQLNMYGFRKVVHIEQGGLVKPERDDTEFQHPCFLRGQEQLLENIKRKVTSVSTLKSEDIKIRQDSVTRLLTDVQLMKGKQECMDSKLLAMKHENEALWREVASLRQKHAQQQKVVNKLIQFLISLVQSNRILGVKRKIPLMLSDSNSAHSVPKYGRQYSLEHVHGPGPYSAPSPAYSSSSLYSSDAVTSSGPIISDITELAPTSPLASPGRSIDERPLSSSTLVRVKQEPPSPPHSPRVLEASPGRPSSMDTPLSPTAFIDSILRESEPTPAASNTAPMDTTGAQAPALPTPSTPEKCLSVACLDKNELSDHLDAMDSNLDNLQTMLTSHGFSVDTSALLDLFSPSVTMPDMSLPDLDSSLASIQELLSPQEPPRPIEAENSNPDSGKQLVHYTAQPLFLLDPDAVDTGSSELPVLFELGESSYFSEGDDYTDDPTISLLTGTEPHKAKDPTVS

[14] = molecular target: T5, RNA-binding protein pos-1 (Caenorhabditis elegans, UniProt G5EF15); test: disruptors of C. elegans POS-1 RNA interaction – biochemical, fluorescence polarization, dose response (AID 1964);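 also: purified POS-1 fused to maltose binding protein made in E. coli; potency of compounds blocking POS-1 binding to fluorescent RNA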
T5 sequence (G5EF15 whole entry): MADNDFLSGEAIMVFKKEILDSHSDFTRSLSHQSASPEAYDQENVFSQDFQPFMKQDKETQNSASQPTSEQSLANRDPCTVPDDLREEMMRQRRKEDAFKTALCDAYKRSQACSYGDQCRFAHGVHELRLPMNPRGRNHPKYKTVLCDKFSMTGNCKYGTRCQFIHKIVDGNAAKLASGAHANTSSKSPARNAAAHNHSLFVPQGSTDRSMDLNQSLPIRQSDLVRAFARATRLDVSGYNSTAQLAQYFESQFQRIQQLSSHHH

[15] = molecular target: T6, Zinc finger protein mex-5 (Caenorhabditis elegans, UniProt Q9XUB2); test: potency of MEX-5 RNA-binding blockers – biochemical, C. elegans, fluorescence polarization, dose response (AID 1960)
T6 sequence (Q9XUB2 whole entry): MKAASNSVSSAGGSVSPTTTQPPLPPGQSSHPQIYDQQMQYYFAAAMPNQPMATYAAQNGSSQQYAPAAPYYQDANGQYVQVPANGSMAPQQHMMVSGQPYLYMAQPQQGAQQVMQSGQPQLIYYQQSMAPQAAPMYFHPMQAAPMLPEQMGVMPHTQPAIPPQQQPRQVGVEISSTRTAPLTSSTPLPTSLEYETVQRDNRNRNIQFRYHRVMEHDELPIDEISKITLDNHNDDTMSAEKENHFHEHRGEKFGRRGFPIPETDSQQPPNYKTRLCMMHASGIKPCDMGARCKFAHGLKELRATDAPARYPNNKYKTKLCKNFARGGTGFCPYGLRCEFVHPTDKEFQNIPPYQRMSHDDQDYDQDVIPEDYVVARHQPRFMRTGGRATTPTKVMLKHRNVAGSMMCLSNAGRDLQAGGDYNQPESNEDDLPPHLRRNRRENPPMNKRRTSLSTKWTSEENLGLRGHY

[16] = molecular target: Cytochrome P450 2D6 (Homo sapiens, UniProt P10635);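 also: CYP2D6 member of a cytochrome P450 panel assay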
[17] = test system: BJ; test: BJ-TERT fibroblast viability loss – cell-based, RAS-independent, luminescence, dose response (AID 1933); assay type: functional; settings: Homo sapiens
[18] = test system: BJ; test: cells; assay type: functional, cell-based; settings: Homo sapiens
[19] = test system: BJ; test: BJ-TERT-LT-ST fibroblast viability loss – cell-based, RAS-independent, luminescence, dose response (AID 1935); assay type: functional; settings: Homo sapiens;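 also: BJ fibroblasts immortalized with TERT plus LT and ST oncogenes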
[20] = DRD fibroblast viability loss – cell-based, non-viral oncogenic, luminescence, dose response (AID 1934); assay type: functional; settings: Homo sapiens

Chain of Luciferin 4-monooxygenase (P08659 whole entry): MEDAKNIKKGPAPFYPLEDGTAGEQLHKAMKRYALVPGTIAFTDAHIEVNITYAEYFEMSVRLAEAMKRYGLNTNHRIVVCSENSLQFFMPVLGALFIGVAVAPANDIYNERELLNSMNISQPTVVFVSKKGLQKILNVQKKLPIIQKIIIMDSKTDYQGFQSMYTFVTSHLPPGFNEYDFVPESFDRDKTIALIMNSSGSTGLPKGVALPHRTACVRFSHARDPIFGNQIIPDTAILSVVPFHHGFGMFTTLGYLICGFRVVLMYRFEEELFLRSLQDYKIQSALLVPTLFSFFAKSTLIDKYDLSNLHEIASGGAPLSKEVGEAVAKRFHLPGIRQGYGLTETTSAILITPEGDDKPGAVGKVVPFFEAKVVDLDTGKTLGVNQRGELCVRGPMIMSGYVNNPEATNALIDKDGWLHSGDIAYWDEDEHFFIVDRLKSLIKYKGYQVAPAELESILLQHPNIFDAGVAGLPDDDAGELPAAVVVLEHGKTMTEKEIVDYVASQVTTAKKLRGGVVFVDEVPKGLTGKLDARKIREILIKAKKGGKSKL
Chain of Large T antigen (P03070 whole entry): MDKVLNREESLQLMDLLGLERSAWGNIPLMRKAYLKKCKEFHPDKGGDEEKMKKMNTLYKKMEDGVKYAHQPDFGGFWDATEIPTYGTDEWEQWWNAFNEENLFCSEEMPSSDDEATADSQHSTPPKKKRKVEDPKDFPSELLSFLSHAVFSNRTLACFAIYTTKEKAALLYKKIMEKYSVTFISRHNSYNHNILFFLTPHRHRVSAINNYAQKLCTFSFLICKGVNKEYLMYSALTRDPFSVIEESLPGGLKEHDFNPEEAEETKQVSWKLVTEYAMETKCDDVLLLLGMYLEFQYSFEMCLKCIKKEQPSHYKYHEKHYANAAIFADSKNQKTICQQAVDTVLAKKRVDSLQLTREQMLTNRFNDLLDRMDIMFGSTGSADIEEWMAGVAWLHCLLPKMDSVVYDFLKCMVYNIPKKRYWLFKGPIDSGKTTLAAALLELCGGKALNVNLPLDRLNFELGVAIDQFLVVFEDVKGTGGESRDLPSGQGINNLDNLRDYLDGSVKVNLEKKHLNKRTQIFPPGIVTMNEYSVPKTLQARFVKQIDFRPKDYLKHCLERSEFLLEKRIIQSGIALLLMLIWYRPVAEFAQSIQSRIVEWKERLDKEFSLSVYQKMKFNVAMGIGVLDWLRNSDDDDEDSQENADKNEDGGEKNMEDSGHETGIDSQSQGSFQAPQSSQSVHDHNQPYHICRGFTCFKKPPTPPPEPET
Chain of Cytochrome P450 2D6 (P10635 whole entry): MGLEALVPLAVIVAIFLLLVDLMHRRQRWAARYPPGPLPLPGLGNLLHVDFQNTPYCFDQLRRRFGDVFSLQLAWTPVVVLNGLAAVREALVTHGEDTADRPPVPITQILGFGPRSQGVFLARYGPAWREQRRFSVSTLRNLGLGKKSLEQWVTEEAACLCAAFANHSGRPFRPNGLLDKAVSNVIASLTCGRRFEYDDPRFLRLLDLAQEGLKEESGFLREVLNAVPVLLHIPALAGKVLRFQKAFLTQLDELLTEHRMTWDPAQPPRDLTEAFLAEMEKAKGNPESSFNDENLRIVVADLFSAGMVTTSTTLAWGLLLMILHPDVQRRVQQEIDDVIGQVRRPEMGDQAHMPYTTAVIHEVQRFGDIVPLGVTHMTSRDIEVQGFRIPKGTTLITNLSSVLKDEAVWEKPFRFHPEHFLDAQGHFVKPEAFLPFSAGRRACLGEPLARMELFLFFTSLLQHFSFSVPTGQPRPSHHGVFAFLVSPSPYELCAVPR

COc1ccccc1NS(=O)(=O)c1ccc2oc(SCC(=O)N3CCNC3=O)nc2c1
IC50 [1]: 15.8 µM (active)

O=C(CN1CCN(c2ccc(O)cc2)CC1)Nc1ccc2c(c1)OCCO2
IC50 [2]: 8.22 µM (active)

N=C(NOC(=O)CCCCCN1C(=O)c2ccccc2C1=O)c1ccccc1
IC50 [3]: 48.1 µM (not active)

COc1cc(C(=O)Nc2nc3ccc(S(C)(=O)=O)cc3s2)cc(OC)c1C
IC50 [4]: > 20 µM (inactive)

COc1ccccc1OCCNC(=O)c1cc([N+](=O)[O-])cc([N+](=O)[O-])c1
EC50 [5]: 0.107 µM (active) | EC50 [6]: > 60 µM (not active) | IC50 [7]: 47.6 µM (active)

COc1cc2c(cc1OC)C[N+](C)(C)CC2
IC50 [2]: 55.1 µM (active)

COc1ccc(/C=N/NC(=O)c2ccc(Br)cc2)cc1CN1CCOCC1
IC50 [2]: 15.8 µM (active)

CCOc1ccccc1-c1nc(C(N)=O)c2nc(O)n(-c3ccc(F)cc3)c2n1
IC50 [4]: > 20 µM (inactive)

CCCc1cc(O)nc(Nc2ccc(O)cc2)n1
IC50 [2]: 6.91 µM (active)

OC(CNCc1cccc(Br)c1)c1ccccc1 (stereo not drawn)
EC50 [8]: > 112 µM (not active) | EC50 [9]: 20.7 µM (active)

Cc1c(-c2ccc(Br)cc2)nc2ccccn12
IC50 [7]: 49.4 µM (active)

O=C(NNC(=O)C1CCN(S(=O)(=O)c2ccc(Cl)cc2)CC1)c1ccc(S(=O)(=O)N2CCCCC2)cc1
IC50 [4]: > 20 µM (inactive)

CCOC(=O)C1CCN(S(=O)(=O)c2cc(Br)cc3c2N(C(=O)C2CC2)CC3)CC1
IC50 [3]: 11.5 µM (not active)

O/N=C(\c1ccc(Cl)cc1)c1cc2ccccc2o1
IC50 [3]: 2.06 µM (not active)

Brc1ccc(-c2csc(NC3=NCCCCC3)n2)cc1
EC50 [10]: 18.9 µM (active) | EC50 [11]: 36.6 µM (active)

O=C(N[C@@H](Cc1ccccc1)C(=O)OCc1ccccc1)c1[nH]cnc1C(=O)N1CCN(c2ccccc2)CC1
IC50 [3]: 6.6 µM (not active)

COc1ccc(NC(=O)CCS(=O)(=O)c2ccc3nc(C)sc3c2)cc1OC
EC50 [8]: > 112 µM (not active) | EC50 [9]: > 112 µM (not active)

COC(=O)c1c(C)[nH]c(O)c1/C=N/c1ccc(Oc2ccccc2)cc1
IC50 [1]: > 79 µM (inactive) | EC50 [12]: > 53 µM (inactive)

O=C(OCCCN1CCOCC1)c1ccc(O)c(O)c1
EC50 [13]: 34.7 µM (active) | IC50 [2]: 11.7 µM (active)

Cc1cc(O)nc2ccc(S(=O)(=O)Nc3ccc(O)cc3)cc12
IC50 [2]: 7.49 µM (active)

CC(C)(C)c1ccc(OCCOc2ccc(C(C)(C)C)cc2NC=O)c(NC=O)c1
EC50 [5]: 2.47 µM (active) | IC50 [3]: 16.6 µM (not active) | EC50 [6]: > 60 µM (not active)

O=C1NC(=O)[C@@H]2C3c4ccccc4C=CN3[C@H](C(=O)c3cccs3)[C@H]12 (stereo partly drawn)
EC50 [14]: 24.6 µM (inconclusive) | EC50 [15]: 16.4 µM (active)

CN(C(=O)CCc1nc(O)c2ccccc2n1)C1CCS(=O)(=O)C1 (stereo not drawn)
IC50 [1]: > 79 µM (inactive)

C[C@H](NS(=O)(=O)c1ccc(Cl)cc1)C(=O)OCC(=O)NC(=O)Nc1ccc2c(c1)OCCO2
IC50 [3]: 14.2 µM (not active)

CN1C(=O)C(=CNCCCCCCCCCCC(=O)O)C(=O)N(C)C1=O
EC50 [14]: > 300 µM (not active) | EC50 [15]: > 300 µM (not active)

COc1ccc(C(C(=O)NCc2ccccc2)N(Cc2cccs2)C(=O)c2cnccn2)cc1 (stereo not drawn)
IC50 [1]: > 79 µM (inactive) | AC50 [16]: 31.6 µM (inconclusive)

CCOC(=O)COc1cc(N)c(Cl)cc1Cl
IC50 [7]: 7.65 µM (active)

COc1ccccc1-c1cc(C(=O)N/N=C/C=C/c2ccccc2[N+](=O)[O-])c2ccccc2n1
IC50 [1]: > 79 µM (inactive)

COC(=O)c1sccc1NC(=O)Nc1ccc(F)cc1
EC50 [8]: 0.535 µM (active) | EC50 [9]: 1.67 µM (active)

COc1ccc(NC(=O)c2c(Cl)n(C)c3ccccc23)cc1
EC50 [17]: 22.7 µM (active) | EC50 [18]: 23 µM (active) | EC50 [19]: > 150 µM (inconclusive) | EC50 [20]: 25.3 µM (active)

C[C@@H]1ON(C)[C@H]2C[C@H]3c4[nH]c5ccc(-c6ccc7c(c6)OCO7)cc5c4CCN3C[C@@H]12
IC50 [1]: > 79 µM (inactive)

O=C(CSc1nc(-c2ccccc2)cs1)NCc1ccco1
EC50 [8]: > 112 µM (not active) | EC50 [9]: > 112 µM (not active)

CCOc1ccc(Cl)cc1S(=O)(=O)N1CCN(c2ccc(F)cc2)CC1
IC50 [3]: 7.1 µM (not active)

Nc1ccc(-c2nnc(O)c3ccccc23)cc1N
IC50 [1]: > 79 µM (inactive)

Nc1ncccc1OCc1ccc(Br)cc1
EC50 [10]: 1.05 µM (active) | EC50 [11]: > 120 µM (not active)

O=S(=O)(c1ccccc1)N1CCN(c2nc(-c3cccnc3)nc3ccccc23)CC1
IC50 [1]: 10.2 µM (active)

O=C(Nc1ccc(N2CCCC2)cc1)c1cc(Cl)ccc1Cl
EC50 [17]: 13.6 µM (active) | EC50 [18]: > 150 µM (not active) | EC50 [19]: 146 µM (active) | EC50 [20]: 15.8 µM (active)
